Data published in PMC12155335, “Phenethyl Acetate as an Agonist of Insect Odorant Receptor Co-Receptor (Orco): Molecular Mechanisms and Functional Insights” (International Journal of Molecular Sciences, 2025).

Legend:
[1] = target: T1, Or1a/Orco (Drosophila melanogaster, UniProt Q9VNB5+Q9W5G6); test: Two-electrode voltage-clamp in Xenopus laevis oocytes expressing Or1a/Orco; type: cell-based, D. melanogaster; conditions: TEVC; for odorant-evoked inward current (activation): −80 mV, octanol 30 μM, PA 10 μM (Figure 2A)
T1 construct: expressed in transfected cells; host or cells: Xenopus laevis oocytes injected with in vitro transcribed mRNA (pGEM-HE)
T1 sequence (Q9W5G6 1-392): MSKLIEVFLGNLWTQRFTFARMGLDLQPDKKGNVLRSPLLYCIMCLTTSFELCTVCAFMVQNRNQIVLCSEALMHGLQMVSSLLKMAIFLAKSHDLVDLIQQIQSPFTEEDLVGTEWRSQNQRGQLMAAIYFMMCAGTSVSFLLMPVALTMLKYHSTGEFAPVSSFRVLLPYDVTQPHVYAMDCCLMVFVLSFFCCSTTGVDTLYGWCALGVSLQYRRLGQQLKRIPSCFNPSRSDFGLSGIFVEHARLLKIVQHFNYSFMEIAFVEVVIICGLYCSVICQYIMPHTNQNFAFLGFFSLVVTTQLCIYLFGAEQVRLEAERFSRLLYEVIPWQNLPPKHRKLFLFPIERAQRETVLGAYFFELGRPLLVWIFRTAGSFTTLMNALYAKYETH
T1 sequence (Q9VNB5 1-486): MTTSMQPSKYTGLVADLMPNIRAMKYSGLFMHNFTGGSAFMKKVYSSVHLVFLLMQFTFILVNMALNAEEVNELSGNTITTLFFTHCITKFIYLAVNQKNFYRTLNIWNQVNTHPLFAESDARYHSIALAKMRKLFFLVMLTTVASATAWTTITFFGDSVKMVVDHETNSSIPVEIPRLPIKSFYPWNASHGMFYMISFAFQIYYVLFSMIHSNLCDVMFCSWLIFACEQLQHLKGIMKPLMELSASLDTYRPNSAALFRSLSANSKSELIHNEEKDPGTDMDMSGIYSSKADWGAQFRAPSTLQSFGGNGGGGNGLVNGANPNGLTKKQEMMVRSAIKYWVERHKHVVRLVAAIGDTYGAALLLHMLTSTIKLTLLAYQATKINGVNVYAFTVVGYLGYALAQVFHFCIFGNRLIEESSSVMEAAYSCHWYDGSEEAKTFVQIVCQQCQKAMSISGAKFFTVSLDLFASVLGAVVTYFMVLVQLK
Experimental: (§1) The D. melanogaster Or subunits (Or1a, Or24a, and Or35a) (FlyBase IDs: FBgn0029521, FBgn0026394, and FBgn0028946) and the odorant receptor co-receptor Orco (FlyBase ID: FBgn0037324) were synthesized as complementary DNA by Cosmogenetech (Seoul, Republic of Korea). The synthesized cDNA constructs were subcloned into the pGEM-HE expression vector. Plasmid transformation was performed using Escherichia coli DH5α competent cells, and recombinant plasmids were isolated using a miniprep protocol. The integrity of the cloned sequences was confirmed by Sanger sequencing. For complementary RNA synthesis, D. melanogaster Or1a, Or24a, Or35a, and Orco cDNA were linearized with appropriate restriction endonucleases, and digestion efficiency was verified via agarose gel electrophoresis. In vitro transcription was carried out using T7 RNA polymerase (mMESSAGE mMACHINE T7 Transcription Kit; Thermo Fisher Scientific, Waltham, MA, USA). The resulting mRNA was precipitated, resuspended in DEPC-treated water, and stored at −80 °C for subsequent experiments.
(§2) Xenopus laevis frogs were obtained from the Korean Xenopus Resource Center for Research (KXRCR000001, Gangwon, Republic of Korea). The isolation and maintenance of Xenopus oocytes followed the standardized protocols described by Pyeon et al. and complied with the ethical guidelines of Chonnam National University (CNU IACUC-YB-2016-07, July 2016). Microinjection of 50 ng of mRNA per oocyte was performed using a nanoliter injector (Drummond Scientific, Vernon Hills, IL, USA). Following injection, the oocytes were incubated at 18 °C in a shaking incubator to facilitate optimal protein expression before electrophysiological recordings.
(§3) The two-electrode voltage-clamp (TEVC) experiments were conducted following established protocols as described in Lee et al.. […]
(§4) All values are presented as the mean ± S.E.M. (standard error of the mean) following data analysis. Data collected using the two-electrode voltage-clamp technique were analyzed with SigmaPlot 10.0 software. […]

[2] = target: T2, Or24a/Orco (Drosophila melanogaster, UniProt P81913+Q9VNB5); test: Two-electrode voltage-clamp in Xenopus laevis oocytes expressing Or24a/Orco; type: cell-based, D. melanogaster; conditions: TEVC; for odorant-evoked inward current (activation): −80 mV, octanol 10 μM, PA 10 μM (Figure 2B)
T2 construct: expressed in transfected cells; host or cells: Xenopus laevis oocytes injected with in vitro transcribed mRNA (pGEM-HE)
T2 sequence (P81913 1-398): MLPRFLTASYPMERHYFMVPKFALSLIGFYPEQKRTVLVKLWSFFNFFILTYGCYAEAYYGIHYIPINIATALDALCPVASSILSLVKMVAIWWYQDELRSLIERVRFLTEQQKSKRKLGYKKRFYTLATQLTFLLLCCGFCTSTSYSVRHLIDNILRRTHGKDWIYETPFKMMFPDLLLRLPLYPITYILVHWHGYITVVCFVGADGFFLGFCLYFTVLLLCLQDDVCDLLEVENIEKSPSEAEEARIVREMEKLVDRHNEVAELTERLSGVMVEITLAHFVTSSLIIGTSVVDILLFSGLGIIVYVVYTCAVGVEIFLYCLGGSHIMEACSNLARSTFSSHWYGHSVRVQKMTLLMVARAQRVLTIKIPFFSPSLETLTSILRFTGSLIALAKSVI
T2 sequence (Q9VNB5 1-486): T1 sequence (Q9VNB5 1-486)
Experimental: as §1, §2, §3, §4

[3] = target: T3, Or35a/Orco (Drosophila melanogaster, UniProt Q9V3Q2+Q9VNB5); test: Two-electrode voltage-clamp in Xenopus laevis oocytes expressing Or35a/Orco; type: cell-based, D. melanogaster; conditions: TEVC; for odorant-evoked inward current (activation): −80 mV, octanol 10 μM, PA 10 μM (Figure 2C)
T3 construct: expressed in transfected cells; host or cells: Xenopus laevis oocytes injected with in vitro transcribed mRNA (pGEM-HE)
T3 sequence (Q9V3Q2 1-409): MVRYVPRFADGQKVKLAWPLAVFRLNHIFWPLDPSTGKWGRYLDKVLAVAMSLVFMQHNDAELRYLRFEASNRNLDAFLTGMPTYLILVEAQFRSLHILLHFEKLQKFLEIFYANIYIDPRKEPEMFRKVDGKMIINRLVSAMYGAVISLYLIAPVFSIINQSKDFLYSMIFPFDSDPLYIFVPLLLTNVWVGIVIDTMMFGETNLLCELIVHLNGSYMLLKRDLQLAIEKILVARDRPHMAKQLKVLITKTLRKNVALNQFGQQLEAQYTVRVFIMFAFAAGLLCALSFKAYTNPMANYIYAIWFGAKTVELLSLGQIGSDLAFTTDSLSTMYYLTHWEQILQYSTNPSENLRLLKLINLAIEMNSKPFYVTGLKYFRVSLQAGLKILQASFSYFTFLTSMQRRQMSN
T3 sequence (Q9VNB5 1-486): T1 sequence (Q9VNB5 1-486)
Experimental: as §1, §2, §3, §4

[4] = target: T4, Orco homomers (Drosophila melanogaster, UniProt Q9VNB5); test: Two-electrode voltage-clamp in Xenopus laevis oocytes expressing Orco homomers; type: cell-based; conditions: for odorant-evoked inward current (activation): Orco alone, −80 mV, octanol 10 μM, PA 10 μM (Figure 2D)
T4 construct: expressed in transfected cells; host or cells: Xenopus laevis oocytes injected with Orco mRNA
T4 sequence (Q9VNB5 1-486): T1 sequence (Q9VNB5 1-486)
Experimental: as §1, §2
(§5) The two-electrode voltage-clamp (TEVC) experiments were conducted following established protocols as described in Lee et al.. This methodology ensures the accurate measurement of odorant receptor activation and has been widely used in previous studies on insect olfactory receptors. The molecular interaction between the odorant receptor (Or) and its ligand was examined using Or-expressing oocytes. Electrophysiological recordings were conducted with a two-electrode voltage-clamp system (OC-725C; Warner Instruments, Hamden, CT, USA) and digitized using a Digidata acquisition system (1322A; Molecular Devices, Sunnyvale, CA, USA). The oocyte membrane potential was clamped at −80 mV. Stock solutions of each compound were prepared by dissolving them in ND96 buffer (58.44 mM NaCl, 2 mM KCl, 1 mM MgCl2, 1.8 mM CaCl2, 5 mM HEPES, pH of 7.4) at the appropriate concentrations before use. […]
as §4

[5] = tested on: Or1a, Or24a, and Or35a co-expressed with mutant Orco; test: Two-electrode voltage-clamp, Or1a, Or24a, Or35a co-expressed with mutant Orco; type: cell-based, D. melanogaster; conditions: TEVC, 10 µM octanol, mutant Orco co-expressed with Ors
Experimental: as §2
The two-electrode voltage-clamp (TEVC) experiments were conducted following established protocols as described in Lee et al.. This methodology ensures the accurate measurement of odorant receptor activation and has been widely used in previous studies on insect olfactory receptors. The molecular interaction between the odorant receptor (Or) and its ligand was examined using Or-expressing oocytes. […]
(§6) To validate the potential binding sites predicted by 3D protein–ligand docking simulations, molecular characterization was conducted through site-directed mutagenesis. […] The effect of these mutations on PA-binding affinity was evaluated through two-electrode voltage-clamp recordings.

[6] = target: W146A Orco (Drosophila melanogaster, UniProt Q9VNB5, W150A); test: Two-electrode voltage-clamp, W146A mutant Orco; type: cell-based, D. melanogaster
W146A Orco, sequence (Q9VNB5 whole entry W150A): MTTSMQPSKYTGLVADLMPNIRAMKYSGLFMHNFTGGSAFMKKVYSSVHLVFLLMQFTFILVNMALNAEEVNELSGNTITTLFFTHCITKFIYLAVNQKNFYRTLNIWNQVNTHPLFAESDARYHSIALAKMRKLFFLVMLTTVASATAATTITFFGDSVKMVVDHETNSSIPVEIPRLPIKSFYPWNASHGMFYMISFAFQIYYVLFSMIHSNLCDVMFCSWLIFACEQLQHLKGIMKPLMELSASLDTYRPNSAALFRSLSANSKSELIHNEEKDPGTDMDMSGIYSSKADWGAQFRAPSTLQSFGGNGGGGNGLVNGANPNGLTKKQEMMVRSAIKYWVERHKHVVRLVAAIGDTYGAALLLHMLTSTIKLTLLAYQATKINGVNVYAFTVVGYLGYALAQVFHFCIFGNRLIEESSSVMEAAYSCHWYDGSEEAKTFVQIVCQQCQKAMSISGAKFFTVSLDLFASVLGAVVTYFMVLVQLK
Experimental: as §2, §3, §6, §4

[7] = target: E153A Orco (Drosophila melanogaster, UniProt Q9VNB5); test: Two-electrode voltage-clamp, E153A mutant Orco; type: cell-based, D. melanogaster; conditions: TEVC
Experimental: as §2, §3, §6, §4

[8] = tested on: double mutation (W146A + E153A) Orco; test: Two-electrode voltage-clamp, double-mutant Orco; type: cell-based, D. melanogaster; conditions: TEVC (Figure 5)
Experimental: as §2, §3, §6, §4

[9] = tested on: uninjected oocytes; test: Two-electrode voltage-clamp control on uninjected oocytes; type: cell-based, Xenopus laevis; conditions: control experiment, TEVC
Experimental: as §2
as §5, with “mV.” for “mV. Stock solutions of each compound were prepared by dissolving them in ND96 buffer (58.44 mM NaCl, 2 mM KCl, 1 mM MgCl2, 1.8 mM CaCl2, 5 mM HEPES, pH of 7.4) at the appropriate concentrations before use.”

[10] = Xenopus oocytes, holding potential −80 mV, mean ± SEM, read-out: half-maximal effective concentration (EC50)

| SMILES | odorant-evoked inward current (activation) [1] | odorant-evoked inward current (activation) [2] | odorant-evoked inward current (activation) [3] | odorant-evoked inward current (activation) ([4]; TEVC) | activation by octanol with mutant Orco [5] | EC50 [1, 10] [µM] | EC50 [2, 10] [µM] | EC50 [3, 10] [µM] | voltage dependence of activation (current–voltage relationship) ([4]; voltage ramps, PA 0.3 µM and 3 µM, Orco homomeric receptor (Figure 3D)) | EC50 ([4]; wild-type Orco homomers, TEVC, Xenopus oocytes, holding potential −80 mV, mean ± SEM, read-out: half-maximal effective concentration (EC50)) [µM] | EC50 [6] [µM] | PA-induced currents versus wild type ([6]; single mutation W146A, TEVC, 10 µM PA (Figure 5)) | EC50 ([7]; E153A Orco homomers, Xenopus oocytes, −80 mV) [µM] | PA-induced currents versus wild type ([7]; single mutation E153A, 10 µM PA (Figure 5)) | PA activation versus wild type [8] | effect on uninjected oocytes [9] |
| --- | --- | --- | --- | --- | --- | --- | --- | --- | --- | --- | --- | --- | --- | --- | --- | --- |
| CCCCCCCCO [octanol, reference compound] | induced robust inward currents | induced robust inward currents | induced robust inward currents | failed to activate | remained consistent |  |  |  |  |  |  |  |  |  |  |  |
| CC(=O)OCCc1ccccc1 [PA, phenethyl acetate] | induced inward currents | induced inward currents | induced inward currents | induced inward currents |  | 2.1 ± 1.2 | 2.8 ± 0.2 | 5.9 ± 1.1 | voltage-independent activation | 0.4 ± 0.2 | 17.9 ± 2.1 | significantly reduced | 12.8 ± 1.9 | significantly reduced | nearly abolished | no effect |
